Measured values published in patent EP0085842A1, “Antimycosic agents” (BAYER AG, priority 1982, dated 1983).
≈ marks a conversion by molar mass, not a printed value.

Assays:
[1] = test system: Trichophyton mentagr.; test: Antimycotic in-vitro activity, serial dilution test (MIC); type: cell-based, Trichophyton mentagrophytes; conditions: Sabouraud's milieu d'epreuve, 20°C, 96 h, inoculum 5 x 10^4 Keime/ml, read-out: MHK-Werte in γ/ml Nährmedium Trichophyton mentagr.
Method: (§1) Versuchsbeschreibung: • Die in-vitro-Prüfungen wurden im Reihenverdünnungstest mit Keiminokula von durchschnittlich 5 x 10^4 Keimen/ml Substrat durchgeführt. Als Nährmedium dienten • a) für Dermatophyten und Schimmelpilze: Sabouraud's milieu d'epreuve • b) für Hefen: • Fleischextrakt-Traubenzucker-Bouillon.
(§2) Die Bebrütungstemperatur betrug 20°C, die Bebrütungsdauer lag bei 24 bis 96 Stunden bei Hefen und 96 Stunden bei Dermatophyten und Schimmelpilzen.

[2] = test system: Aspergillus fumigatus; test: as above; type: cell-based; conditions: Sabouraud's milieu d'epreuve, 20°C, 96 h, inoculum 5 x 10^4 Keime/ml, read-out: MHK-Werte in γ/ml Nährmedium Aspergillus fumigatus
Method: as §1, §2

[3] = test system: Candida albicans; test: as above; type: cell-based; conditions: Fleischextrakt-Traubenzucker-Bouillon, 20°C, 24 to 96 h, inoculum 5 x 10^4 Keime/ml, read-out: MHK-Werte in γ/ml Nährmedium Candida albicans
Method: as §1, §2

[4] = test system: Microsporum canis; test: as above; type: cell-based; conditions: Sabouraud's milieu d'epreuve, 20°C, 96 h, inoculum 5 x 10^4 Keime/ml, read-out: MHK-Werte in γ/ml Nährmedium Microsporum canis
Method: as §1, §2

[5] = test system: Torulopsis glabrata; test: as above; type: cell-based; conditions: Nakaseomyces glabratus; Fleischextrakt-Traubenzucker-Bouillon, 20°C, 24 to 96 h, inoculum 5 x 10^4 Keime/ml; read-out: MHK-Werte in γ/ml Nährmedium Torulopsis glabrata
Method: as §1, §2

[6] = test system: Candida-Zellen; test: Antimycotic in-vivo activity (oral) in mouse candidosis; set-up: species or system Mäuse vom Typ SPF-CF1; conditions: for Wirkung: mice infected i.v. with Candida, oral 50 - 100 mg/kg one hour before and seven hours after infection, survivors on day 6 p.i.; for Wirkung compared with known compounds (A), (B), (C) and (D): mouse candidosis, oral 50 - 100 mg/kg
Method: Mäuse vom Typ SPF-CF1 wurden intravenös mit 1 - 2 x 10^6 logarithmisch wachsenden Candida-Zellen, die in physiologischer Kochsalzlösung suspendiert werden, infiziert. Eine Stunde vor und sieben Sunden nach der Infektion werden die Tiere mit jeweils 50 - 100 mg/kg Körpergewicht der Präparate oral behandelt.
Unbehandelte Tiere starben 3 bis 6 Tage post infektionem. Die Überlebensrate am 6. Tag post infektionem betrug bei unbehandelten Kontrolltieren etwa 5 %.
+++++ = sehr gute Wirkung = 90 % Überlebende am 6.Tag p.i. ++++ = gute Wirkung = 80 % Überlebende am 6.Tag p.i. +++ = Wirkung = 60 % Überlebende am 6.Tag p.i. ++ = schwache Wirkung = 40 % Überlebende am 6.Tag p.i. + = Spur Wirkung = unter 40 % Überlebende am 6.Tag p.i. k.W. = keine Wirkung

[7] = test system: Trichophyton mentagrophytes; test: Antimycotic in-vivo activity (local) in experimental guinea pig trichophytosis; set-up: species or system Meerschweinchen; key: +++++: sehr gute Wirkung = keine Infektionszeichen am 12.-15.Tag p.i.; ++++: gute Wirkung = geringe Rötung, vereinzelt Schuppen; +++: Wirkung = Rötung, Schuppung, ohne Haarausfall; ++: schwache Wirkung = Rötung, Schuppung, Haarausfall; +: Spur Wirkung = flächiger Haarausfall, entzündliche Hautreaktion
[8] = local treatment, trichophytosis model
[9] = local, 1 x daily from day 3 p.i., 15 %ige Lösung in Dimethylsulfoxid:Glycerin = 1:4, infection signs day 12-15 p.i.

MIC [1] | MIC [2] | MIC [3] | MIC [4] | MIC [5] | SMILES | Wirkung [6] | Wirkung compared with known compounds (A), (B), (C) and (D) [6] | Wirkung [7, 8] | Wirkung [7, 9]
< 1 µg/mL | < 1 µg/mL | 4 µg/mL (≈ 11.6 µM) | < 1 µg/mL | 16 µg/mL (≈ 46.5 µM) | CC(C)(CF)C(O)(CSc1ccc(Cl)cc1)Cn1cncn1 (stereo not shown) [Beispiel 10] | ++++ (gute Wirkung = 80 % Überlebende am 6.Tag p.i.) | bessere Wirkung | Wirkung bis gute Wirkung | ++++
< 1 µg/mL | < 1 µg/mL | < 1 µg/mL | 2 µg/mL (≈ 6.1 µM) | < 1 µg/mL | CC(C)(CF)C(O)(COc1ccc(Cl)cc1)Cn1cncn1 (stereo not shown) [Beispiel 7] | +++++ (sehr gute Wirkung = 90 % Überlebende am 6.Tag p.i.) | bessere Wirkung | Wirkung bis gute Wirkung | +++
< 1 µg/mL | < 1 µg/mL | < 1 µg/mL | < 1 µg/mL | 2 µg/mL (≈ 6.14 µM) | CC(C)(CF)C(O)(CCc1ccc(Cl)cc1)Cn1cncn1 (stereo not shown) [Beispiel 25] | +++ (Wirkung = 60 % Überlebende am 6.Tag p.i.) | bessere Wirkung | Wirkung bis gute Wirkung | ++++
< 1 µg/mL | 4 µg/mL (≈ 11.6 µM) | < 1 µg/mL | 2 µg/mL (≈ 5.78 µM) | 8 µg/mL (≈ 23.1 µM) | CC(CF)(CF)C(O)(COc1ccc(Cl)cc1)Cn1cncn1 (stereo not shown) [Beispiel 13] | +++++ (sehr gute Wirkung = 90 % Überlebende am 6.Tag p.i.) | bessere Wirkung | Wirkung bis gute Wirkung | +++
4 µg/mL (≈ 12.8 µM) | 8 µg/mL (≈ 25.7 µM) | < 1 µg/mL | 8 µg/mL (≈ 25.7 µM) | 16 µg/mL (≈ 51.4 µM) | CC(C)(CF)C(O)(COc1ccc(F)cc1)Cn1cncn1 (stereo not shown) [Beispiel 1, 4-Fluor-2-(4-fluorphenoxymethyl)-3,3-dimethyl-1-(1,2,4-triazol-1-yl)-butan-2-ol] | +++ (Wirkung = 60 % Überlebende am 6.Tag p.i.) | bessere Wirkung |  | ++
2 µg/mL (≈ 5.27 µM) | 32 µg/mL (≈ 84.4 µM) | 2 µg/mL (≈ 5.27 µM) | 16 µg/mL (≈ 42.2 µM) | 8 µg/mL (≈ 21.1 µM) | CC(CF)(CF)C(O)(COc1ccc(Cl)cc1Cl)Cn1ccnc1 (stereo not shown) [Beispiel 32] | ++++ (gute Wirkung = 80 % Überlebende am 6.Tag p.i.) | bessere Wirkung | Wirkung bis gute Wirkung | +++
< 1 µg/mL | < 1 µg/mL | 4 µg/mL (≈ 11.1 µM) | 2 µg/mL (≈ 5.55 µM) | 8 µg/mL (≈ 22.2 µM) | CC(C)(CF)C(O)(CCc1ccc(Cl)cc1Cl)Cn1cncn1 (stereo not shown) [Beispiel 26] | +++ (Wirkung = 60 % Überlebende am 6.Tag p.i.) | bessere Wirkung | Wirkung bis gute Wirkung | +++
< 1 µg/mL | < 1 µg/mL | < 1 µg/mL | < 1 µg/mL | < 1 µg/mL | C=CC(C)(C)C(O)(COc1ccc(-c2ccccc2)cc1)Cn1ccnc1 (stereo not shown) [Beispiel 5, 4-(4-Biphenylyloxymethyl)-3,3-dimethyl-4-hydroxy-5-(imidazol-1-yl)-1-penten] | ++++ (gute Wirkung = 80 % Überlebende am 6.Tag p.i.) | bessere Wirkung | Wirkung bis gute Wirkung | +++
< 1 µg/mL | 8 µg/mL (≈ 22.2 µM) | < 1 µg/mL | < 1 µg/mL | 4 µg/mL (≈ 11.1 µM) | Cc1cc(Cl)ccc1OCC(O)(Cn1cncn1)C(C)(CF)CF (stereo not shown) [Beispiel 15] | ++++ (gute Wirkung = 80 % Überlebende am 6.Tag p.i.) | bessere Wirkung | Wirkung bis gute Wirkung | ++++
< 1 µg/mL | 4 µg/mL (≈ 10.5 µM) | < 1 µg/mL | < 1 µg/mL | 4 µg/mL (≈ 10.5 µM) | CC(CF)(CF)C(O)(COc1ccc(Cl)cc1Cl)Cn1cncn1 (stereo not shown) [Beispiel 14] | +++++ (sehr gute Wirkung = 90 % Überlebende am 6.Tag p.i.) | bessere Wirkung | Wirkung bis gute Wirkung | ++++
< 1 µg/mL | < 1 µg/mL | 2 µg/mL (≈ 6.21 µM) | 4 µg/mL (≈ 12.4 µM) | 16 µg/mL (≈ 49.7 µM) | C=CC(C)(C)C(O)(COc1ccc(Cl)cc1)Cn1cncn1 (stereo not shown) [Beispiel 22] | +++++ (sehr gute Wirkung = 90 % Überlebende am 6.Tag p.i.) | bessere Wirkung |  | ++
< 1 µg/mL | < 1 µg/mL | 2 µg/mL (≈ 5.82 µM) | 2 µg/mL (≈ 5.82 µM) | 2 µg/mL (≈ 5.82 µM) | CC(CF)(CF)C(O)(CCc1ccc(Cl)cc1)Cn1cncn1 (stereo not shown) [Beispiel 28] | ++++ (gute Wirkung = 80 % Überlebende am 6.Tag p.i.) | bessere Wirkung | Wirkung bis gute Wirkung | ++++
< 1 µg/mL | 2 µg/mL (≈ 5.29 µM) | 2 µg/mL (≈ 5.29 µM) | 2 µg/mL (≈ 5.29 µM) | 4 µg/mL (≈ 10.6 µM) | CC(CF)(CF)C(O)(CCc1ccc(Cl)cc1Cl)Cn1cncn1 (stereo not shown) [Beispiel 27] | +++ (Wirkung = 60 % Überlebende am 6.Tag p.i.) | bessere Wirkung | Wirkung bis gute Wirkung | +++
